Structures can show the parent of a compound that is named as a salt.
Experiment: in vitro
Conditions: rat, gh3-tre-luc cells, AC50 (uM) modified / 1000

Going from CCN(CC)C(=O)C(C)Oc1cccc2ccccc12 (stereo not shown) [Napropamide] to CCN(CC)C(C)CN1c2ccccc2Sc2ccccc21 (stereo not shown) [Ethopropazine hydrochloride], the CC50 at 24 h falls from > 90 µM to 10.7 µM.

CC(c1cc2ccccc2s1)N(O)C(N)=O (stereo not shown) [Zileuton] and CC(C)c1ccccc1O [2-Isopropylphenol] cannot be ordered by CC50 at 24 h: > 90 µM for the first, > 90 µM for the second.

CC(CO)Oc1ccccc1 (stereo not shown) [2-Phenoxy-1-propanol] and OCCCNc1ccccc1 [3-Anilinopropan-1-ol] cannot be ordered by CC50 at 24 h: > 90 µM for the first, > 50 µM for the second.

Compared with CSCCC=O [3-(Methylthio)propanal], CC=O [Acetaldehyde] is lower in CC50 at 24 h: > 100 µM for the first, 3.09 µM for the second.

CC(=O)OCCN(CCOC(C)=O)c1ccc(N=Nc2ccc([N+](=O)[O-])cc2C#N)cc1 [Disperse Red 82] and CC(=O)Nc1ccc(OCCOCCOc2ccc(NC(C)=O)cc2)cc1 [Diamfenetide] cannot be ordered by CC50 at 24 h: 54 µM for the first, > 50 µM for the second.

NNC(=O)CP(=O)(c1ccccc1)c1ccccc1 [Fosenazide] and c1ccc2c(c1)[nH]c1ccccc12 [Carbazole] cannot be ordered by CC50 at 24 h: > 50 µM for the first, > 90 µM for the second.

CC1=CCC2C(C1)C2(C)C (stereo not shown) [3-Carene] and CC(=O)O[C@]1(C(C)=O)CC[C@H]2[C@@H]3C[C@H](C)C4=CC(=O)CC[C@]4(C)[C@H]3CC[C@@]21C [Medroxyprogesterone acetate] cannot be ordered by CC50 at 24 h: > 90 µM for the first, > 90 µM for the second.

Compared with CCN1/C(=C/C=C/C=C/c2sc3ccccc3[n+]2CC)Sc2ccccc21 [Dithiazanine iodide], Brc1c2ccccc2cc2ccccc12 [9-Bromoanthracene] is higher in CC50 at 24 h: 4.14 µM for the first, > 90 µM for the second.

Compared with CCOCn1c(-c2ccc(Cl)cc2)c(C#N)c(Br)c1C(F)(F)F [Chlorfenapyr], CC(C)(C)C(O)C(Oc1ccc(Cl)cc1)n1cncn1 (stereo not shown) [Triadimenol] is higher in CC50 at 24 h: 2.15 µM for the first, > 90 µM for the second.

NC(=O)c1ccncc1 [Isonicotinamide] and O=C(O)c1ccccc1O [Sodium salicylate] cannot be ordered by CC50 at 24 h: > 100 µM for the first, > 90 µM for the second.

O=C1CN2Cc3c(ccc(Cl)c3Cl)N=C2N1 [Anagrelide hydrochloride] and O=C(O)c1nn(Cc2ccc(Cl)cc2Cl)c2ccccc12 [Lonidamine] cannot be ordered by CC50 at 24 h: > 50 µM for the first, > 90 µM for the second.

CCc1nn(C)c(C(=O)NCc2ccc(C(C)(C)C)cc2)c1Cl [Tebufenpyrad] and CCc1ccc(O)c(C(C)(C)C)c1 [2-tert-Butyl-4-ethylphenol] are within 1.5-fold of each other in CC50 at 24 h: 53.4 µM for the first, 62.1 µM for the second.

C#CC(O)CCCCC (stereo not shown) [1-Octyn-3-ol] and CCCCCC(N)=O [Hexanamide] cannot be ordered by CC50 at 24 h: > 90 µM for the first, > 90 µM for the second.

c1ccc(CNc2ncnc3nc[nH]c23)cc1 [N-Benzyladenine] and CN(C)C(=O)CNC(=O)Cc1ccccc1 [N,N-Dimethyl-2-(2-phenylacetamido)acetamide] cannot be ordered by CC50 at 24 h: > 90 µM for the first, > 50 µM for the second.

CCCCC(CC)COCCO (stereo not shown) [2-(2-Ethylhexyloxy)ethanol] and CCCCC(CC)C(=O)OC(C)C (stereo not shown) [Propan-2-yl 2-ethylhexanoate] cannot be ordered by CC50 at 24 h: > 90 µM for the first, > 90 µM for the second.

CCCCCCCCCCCCOS(=O)(=O)O [Sodium dodecyl sulfate] and C=CCCCCCCCCCCCCCC [1-Hexadecene] cannot be ordered by CC50 at 24 h: > 90 µM for the first, > 20 µM for the second.

CC(C)[C@H](N)C(=O)OCC(CO)OCn1cnc2c(=O)nc(N)[nH]c21 (stereo partly shown) [Valganciclovir hydrochloride] and CCCCCCC(C)OC(=O)COc1nc(F)c(Cl)c(N)c1Cl (stereo not shown) [Fluroxypyr-meptyl] cannot be ordered by CC50 at 24 h: > 50 µM for the first, 51.1 µM for the second.

NC(=O)C1(N2CCCCC2)CCN(CCCC(=O)c2ccc(F)cc2)CC1 [Pipamperone dihydrochloride] and C[C@H](CN1CCCC1)C(=O)c1ccc(C(F)(F)F)cc1 [Lanperisone hydrochloride] cannot be ordered by CC50 at 24 h: > 50 µM for the first, > 50 µM for the second.

Compared with CN(CC(=O)N1CCOCC1)Cc1c(Cl)cccc1NC(=O)c1ccccc1 [Fominoben hydrochloride], CN1CCCN(C(c2ccccc2)c2ccc(Cl)cc2)CC1 (stereo not shown) [Homochlorcyclizine] is lower in CC50 at 24 h: > 50 µM for the first, 7.44 µM for the second.

Cc1cc(C)c(NC(=O)CN(CC(=O)O)CC(=O)O)c(C)c1Br [Mebrofenin] and O=C(O)CC(Cl)C(=O)O (stereo not shown) [Chlorobutanedioic acid] cannot be ordered by CC50 at 24 h: > 50 µM for the first, > 90 µM for the second.

CCCOC(=O)C(C)O (stereo not shown) [Propanoic acid,2-hydroxy-,propylester] and C=CCOC(=O)COCCC(C)C [Prop-2-en-1-yl (3-methylbutoxy)acetate] cannot be ordered by CC50 at 24 h: > 90 µM for the first, > 90 µM for the second.

Compared with Cc1onc(-c2ccccc2)c1-c1ccc(S(N)(=O)=O)cc1 [Valdecoxib], Cc1cccc(CN2CCN(C(c3ccccc3)c3ccc(Cl)cc3)CC2)c1 (stereo not shown) [Meclozine dihydrochloride] is lower in CC50 at 24 h: > 50 µM for the first, 15.6 µM for the second.

C[N+](C)(C)CC1CO1 (stereo not shown) [Glycidyl trimethylammonium chloride] and CC1CCC(C(C)CS)CC1S (stereo not shown) [Dipentenedimercaptan] cannot be ordered by CC50 at 24 h: > 90 µM for the first, > 90 µM for the second.

CC(=O)OCCC1CCCCC1 [2-Cyclohexylethyl acetate] and COC(=O)/C=C(\C)CCC=C(C)C [Methyl geranate] cannot be ordered by CC50 at 24 h: > 90 µM for the first, > 90 µM for the second.

CC(C)=CC(C)(C)C [2,4,4-Trimethyl-2-pentene] and CC(CC=O)CC(C)(C)C (stereo not shown) [3,5,5-Trimethylhexanal] cannot be ordered by CC50 at 24 h: > 90 µM for the first, > 90 µM for the second.

CC(C)CCC(=O)CCC(C)C [2,8-Dimethylnonan-5-one] and COC(=O)[C@@H](N)CCCNC(=N)N[N+](=O)[O-] [L-Nitroarginine methyl ester] cannot be ordered by CC50 at 24 h: > 90 µM for the first, > 50 µM for the second.

Cc1cccc(C)c1O [2,6-Dimethylphenol] and N[C@H](Cc1c[nH]c2ccccc12)C(=O)O [d-Tryptophan] cannot be ordered by CC50 at 24 h: > 90 µM for the first, > 90 µM for the second.

OCCOCC#CCOCCO [1,4-Bis(2-hydroxyethoxy)-2-butyne] and CCCOc1ccc(C(=O)OCCN(CC)CC)cc1N [Proparacaine hydrochloride] cannot be ordered by CC50 at 24 h: > 90 µM for the first, > 50 µM for the second.

Going from C=CCOc1c(Br)cc(C(C)(C)c2cc(Br)c(OCC=C)c(Br)c2)cc1Br [Tetrabromobisphenol A diallyl ether] to CC(C)(O)c1ccccc1CC[C@@H](SCC1(CC(=O)O)CC1)c1cccc(/C=C/c2ccc3ccc(Cl)cc3n2)c1 [Montelukast sodium], the CC50 at 24 h falls from > 50 µM to 35.1 µM.

CCC(c1ccccc1)c1noc(CCN(CC)CC)n1 (stereo not shown) [Proxazole citrate] and CC1(C)S[C@@H]2[C@H](NC(=O)[C@H](N)c3ccccc3)C(=O)N2[C@H]1C(=O)O [Ampicillin trihydrate] cannot be ordered by CC50 at 24 h: > 50 µM for the first, > 90 µM for the second.

O=c1[nH]c(=O)n([C@H]2C[C@H](O)[C@@H](CO)O2)cc1Br [5-Bromo-2'-deoxyuridine] and CC(C)NCC(O)c1ccc(NS(C)(=O)=O)cc1 (stereo not shown) [Sotalol hydrochloride] cannot be ordered by CC50 at 24 h: > 90 µM for the first, > 90 µM for the second.

Clc1ccccc1-c1nnc(-c2ccccc2Cl)nn1 [Clofentezine] and NS(=O)(=O)c1ccc(Cl)c(S(N)(=O)=O)c1 [Clofenamide] cannot be ordered by CC50 at 24 h: > 90 µM for the first, > 50 µM for the second.

CNC(=O)ON=C(C)SC [Methomyl] and C1CN(CCOCCN2CCOCC2)CCO1 [4,4'-(Oxydiethylene)bis(morpholine)] cannot be ordered by CC50 at 24 h: > 90 µM for the first, > 90 µM for the second.

Same assay, conditions: rat, gh3-tre-luc cells, AC50 (uM) modified / 1000, Tox21_110001=Tox21_112509; viability, 1 nM T3 present, 24 h

For NC1=NC(=O)C(c2ccccc2)O1 (stereo not shown) [Pemoline], the CC50 at 24 h was > 50 µM.

Same assay, conditions: rat, gh3-tre-luc cells, AC50 (uM) modified / 1000, Tox21_110001=Tox21_201173; viability, 1 nM T3 present, 24 h

With CCCCOC(=O)c1ccccc1N [Butyl anthranilate] the CC50 at 24 h was > 90 µM.

Same assay, conditions: rat, gh3-tre-luc cells, AC50 (uM) modified / 1000, Tox21_110001=Tox21_201613; viability, 1 nM T3 present, 24 h

For O=[N+]([O-])c1ccc(Cl)c(Cl)c1 [3,4-Dichloronitrobenzene], the CC50 at 24 h was > 90 µM.

Same assay, conditions: rat, gh3-tre-luc cells, AC50 (uM) modified / 1000, Tox21_110001=Tox21_201906; viability, 1 nM T3 present, 24 h

With Nc1ccc(-c2ccc(N)c(Cl)c2)cc1Cl [3,3'-Dichlorobenzidine dihydrochloride] the CC50 at 24 h was 76.5 µM.

Same assay, conditions: rat, gh3-tre-luc cells, AC50 (uM) modified / 1000, Tox21_110001=Tox21_202080; viability, 1 nM T3 present, 24 h

For CC(=O)C=C(C)C [4-Methylpent-3-en-2-one], the CC50 at 24 h was > 100 µM.

Same assay, conditions: rat, gh3-tre-luc cells, AC50 (uM) modified / 1000, Tox21_110001=Tox21_202716; viability, 1 nM T3 present, 24 h

For BrCCCBr [1,3-Dibromopropane], the CC50 at 24 h was > 100 µM.

Same assay, conditions: rat, gh3-tre-luc cells, AC50 (uM) modified / 1000, Tox21_110001=Tox21_300787; viability, 1 nM T3 present, 24 h

In the case of CC[C@H](C)[C@H]1O[C@]2(C=C[C@@H]1C)C[C@@H]1C[C@@H](C/C=C(\C)[C@@H](O[C@H]3C[C@H](OC)[C@@H](O[C@H]4C[C@H](OC)[C@@H](NC)[C@H](C)O4)[C@H](C)O3)[C@@H](C)/C=C/C=C3\CO[C@@H]4[C@H](O)C(C)=C[C@@H](C(=O)O1)[C@]34O)O2 [Emamectin benzoate], the CC50 at 24 h is reported as 1.42 µM.

Same assay, conditions: rat, gh3-tre-luc cells, AC50 (uM) modified / 1000, Tox21_110001=Tox21_301477; viability, 1 nM T3 present, 24 h

For N#Cc1ccc(Cl)cc1 [4-Chlorobenzonitrile], the CC50 at 24 h was > 90 µM.

Same assay, conditions: rat, gh3-tre-luc cells, AC50 (uM) modified / 1000, Tox21_110001=Tox21_301568; viability, 1 nM T3 present, 24 h

In the case of CCC1COC(Cn2cncn2)(c2ccc(Cl)cc2Cl)O1 (stereo not shown) [Etaconazole], the CC50 at 24 h is reported as > 90 µM.

Same assay, conditions: rat, gh3-tre-luc cells, AC50 (uM) modified / 1000, Tox21_110001=Tox21_302060; viability, 1 nM T3 present, 24 h

With O=P(O)(O)c1ccccc1 [Phenylphosphonic acid] the CC50 at 24 h was > 90 µM.

Same assay, conditions: rat, gh3-tre-luc cells, AC50 (uM) modified / 1000, Tox21_110001=Tox21_302894; viability, 1 nM T3 present, 24 h

Nc1ccc(-c2ccc(N)c(Cl)c2)cc1Cl [3,3'-Dichlorobenzidine dihydrochloride] showed a CC50 at 24 h of 20.3 µM.

Same assay, conditions: rat, gh3-tre-luc cells, AC50 (uM) modified / 1000, Tox21_110001=Tox21_303606; viability, 1 nM T3 present, 24 h

In the case of CC(=O)C=C(C)C [4-Methylpent-3-en-2-one], the CC50 at 24 h is reported as > 90 µM.

Same assay, conditions: rat, gh3-tre-luc cells, AC50 (uM) modified / 1000, Tox21_110001=Tox21_400070; viability, 1 nM T3 present, 24 h

In the case of COc1cc(OC)c(OC)cc1C=O [2,4,5-Trimethoxybenzaldehyde], the CC50 at 24 h is reported as > 90 µM.
